Results reported in patent publication US20180036289A1 (Gilead Sciences, Inc., priority 2016, published 2018).

How the values were obtained:
LoVo = assay: Cell proliferation assay (ATPlite), drug with vs without cobicistat; type: cell-based; settings: LoVo cell line; 120 hours incubation
Experimental: (§1) All cell lines were obtained from the American Type Culture Collection (ATCC) Manassas, Va. (US). Master and working cell banks (MCB and WCB) were prepared by subculturing in ATCC-recommended media and freezing protocols (www.atcc.org). Cell line stocks for the assays were prepared from the WCB. The MCB, WCBs and assay stocks were prepared within respectively 3, 6 and 9 passages of the ATCC vial.
(§2) Solid powders of reference compounds were weighed on a calibrated balance and dissolved in 100% DMSO. DMSO samples were stored at room temperature. At the day of the experiment, the compound stock was diluted in 3.16 fold steps in 100% DMSO to obtain a 9-point dilution series. This was further diluted 31.6 times in 20 mM sterile Hepes buffer pH 7.4. A volume of 5 μl was transferred to the cells to generate a test concentration range from 3.16×10^−5M to 3.16×10^−9 M in duplicate. The final DMSO concentration during incubation was […] in all wells.
(§3) An assay stock was thawed and diluted in its ATCC recommended medium and dispensed in a 384-well plate, depending on the cell line used, at a concentration of 200-3200 cells per well in 45 μl medium. For each used cell line the optimal cell density is used. The margins of the plate were filled with phosphate-buffered saline. Plated cells were incubated in a humidified atmosphere of 5% CO2 at 37° C. After 24 hours, 5 μl of compound dilution was added and plates were further incubated for another 120 hours. After 120 hours, 25 μl of ATPlite 1Step™ (PerkinElmer) solution was added to each well, and subsequently shaken for 2 minutes. After 10 minutes of incubation in the dark, the luminescence was recorded on an Envision multimode reader (PerkinElmer).
(§4) IC50s were calculated by non-linear regression using IDBS XLfit 5. The percentage growth after 120 h (%-growth) was calculated as follows: 100%×(luminescencet=120h/luminescenceuntreated,t=120h). This was fitted to the ^10log compound concentration (conc) by a 4-parameter logistics curve: %−growth=bottom+(top−bottom)/(1+10^(log IC50-conc)*hill)), where hill is the Hill-coefficient, and bottom and top the asymptotic minimum and maximum cell growth that the compound allows in that assay.

ACHN = assay: as above; type: cell-based; settings: ACHN cell line; 120 hours incubation
Experimental: as §1, §2, §3, §4

SR = assay: as above; type: cell-based; settings: SR cell line; 120 hours incubation
Experimental: as §1, §2, §3, §4

BxPC-3 = assay: as above; type: cell-based; settings: BxPC-3 cell line; 120 hours incubation
Experimental: as §1, §2, §3, §4

SK-N-AS = assay: as above; type: cell-based; settings: SK-N-AS cell line; 120 hours incubation
Experimental: as §1, §2, §3, §4

MeWo = assay: as above; type: cell-based; settings: MeWo cell line; 120 hours incubation
Experimental: as §1, §2, §3, §4

T24 = assay: as above; type: cell-based; settings: T24 cell line; 120 hours incubation
Experimental: as §1, §2, §3, §4

K-562 = assay: as above; type: cell-based; settings: K-562 cell line; 120 hours incubation
Experimental: as §1, §2, §3, §4

A-549 = assay: as above; type: cell-based; settings: A-549 cell line; 120 hours incubation
Experimental: as §1, §2, §3, §4

DoTc2 4510 = assay: as above; type: cell-based; settings: DoTc2 4510 cell line; 120 hours incubation
Experimental: as §1, §2, §3, §4

KU812 = assay: as above; type: cell-based; settings: KU812 cell line; 120 hours incubation
Experimental: as §1, §2, §3, §4

CAL 27 = assay: as above; type: cell-based; settings: CAL 27 cell line; 120 hours incubation
Experimental: as §1, §2, §3, §4

VA-ES-BJ = assay: as above; type: cell-based; settings: VA-ES-BJ cell line; 120 hours incubation
Experimental: as §1, §2, §3, §4

A-704 = assay: as above; type: cell-based; settings: A-704 cell line; 120 hours incubation
Experimental: as §1, §2, §3, §4

A375 = assay: as above; type: cell-based; settings: A375 cell line; 120 hours incubation
Experimental: as §1, §2, §3, §4

RT4 = assay: as above; type: cell-based; settings: RT4 cell line; 120 hours incubation
Experimental: as §1, §2, §3, §4

SW620 = assay: as above; type: cell-based; settings: SW620 cell line; 120 hours incubation
Experimental: as §1, §2, §3, §4

NCI-H82 = assay: as above; type: cell-based; settings: NCI-H82 cell line; 120 hours incubation
Experimental: as §1, §2, §3, §4

RPMI-7951 = assay: as above; type: cell-based; settings: RPMI-7951 cell line; 120 hours incubation
Experimental: as §1, §2, §3, §4

A-427 = assay: as above; type: cell-based; settings: A-427 cell line; 120 hours incubation
Experimental: as §1, §2, §3, §4

DU 145 = assay: as above; type: cell-based; settings: DU 145 cell line; 120 hours incubation
Experimental: as §1, §2, §3, §4

LNCaP FGC = assay: as above; type: cell-based; settings: LNCaP FGC cell line; 120 hours incubation
Experimental: as §1, §2, §3, §4

CCRF-CEM = assay: as above; type: cell-based; settings: CCRF-CEM cell line; 120 hours incubation
Experimental: as §1, §2, §3, §4

SNU-C2B = assay: as above; type: cell-based; settings: SNU-C2B cell line; 120 hours incubation
Experimental: as §1, §2, §3, §4

MCF7 = assay: as above; type: cell-based; settings: MCF7 cell line; 120 hours incubation
Experimental: as §1, §2, §3, §4

AU-565 = assay: as above; type: cell-based; settings: AU-565 cell line; 120 hours incubation
Experimental: as §1, §2, §3, §4

A-498 = assay: as above; type: cell-based; settings: A-498 cell line; 120 hours incubation
Experimental: as §1, §2, §3, §4

AN3 CA = assay: as above; type: cell-based; settings: AN3 CA cell line; 120 hours incubation
Experimental: as §1, §2, §3, §4

786-O = assay: as above; type: cell-based; settings: 786-O cell line; 120 hours incubation
Experimental: as §1, §2, §3, §4

TT = TT cell line; 120 hours incubation
Experimental: as §1, §2, §3, §4

Row | Structure (SMILES) | Fold change in IC50 (IC50 [Drug + Cobicistat]/IC50 [Drug]) (LoVo) | Fold change in IC50 (IC50 [Drug + Cobicistat]/IC50 [Drug]) (ACHN) | Fold change in IC50 (IC50 [Drug + Cobicistat]/IC50 [Drug]) (SR) | Fold change in IC50 (IC50 [Drug + Cobicistat]/IC50 [Drug]) (BxPC-3) | Fold change in IC50 (IC50 [Drug + Cobicistat]/IC50 [Drug]) (SK-N-AS) | Fold change in IC50 (IC50 [Drug + Cobicistat]/IC50 [Drug]) (MeWo) | Fold change in IC50 (IC50 [Drug + Cobicistat]/IC50 [Drug]) (T24) | Fold change in IC50 (IC50 [Drug + Cobicistat]/IC50 [Drug]) (K-562) | Fold change in IC50 (IC50 [Drug + Cobicistat]/IC50 [Drug]) (A-549) | Fold change in IC50 (IC50 [Drug + Cobicistat]/IC50 [Drug]) (DoTc2 4510) | Fold change in IC50 (IC50 [Drug + Cobicistat]/IC50 [Drug]) (KU812) | Fold change in IC50 (IC50 [Drug + Cobicistat]/IC50 [Drug]) (CAL 27) | Fold change in IC50 (IC50 [Drug + Cobicistat]/IC50 [Drug]) (VA-ES-BJ) | Fold change in IC50 (IC50 [Drug + Cobicistat]/IC50 [Drug]) (A-704) | Fold change in IC50 (IC50 [Drug + Cobicistat]/IC50 [Drug]) (A375) | Fold change in IC50 (IC50 [Drug + Cobicistat]/IC50 [Drug]) (RT4) | Fold change in IC50 (IC50 [Drug + Cobicistat]/IC50 [Drug]) (SW620) | Fold change in IC50 (IC50 [Drug + Cobicistat]/IC50 [Drug]) (NCI-H82) | Fold change in IC50 (IC50 [Drug + Cobicistat]/IC50 [Drug]) (RPMI-7951) | Fold change in IC50 (IC50 [Drug + Cobicistat]/IC50 [Drug]) (A-427) | other results
1 | CC(=O)O[C@@]12CO[C@@H]1C[C@H](O)[C@@]1(C)C(=O)[C@H](O)C3=C(C)[C@@H](OC(=O)[C@H](O)[C@@H](NC(=O)OC(C)(C)C)c4ccccc4)C[C@@](O)([C@@H](OC(=O)c4ccccc4)[C@H]21)C3(C)C [docetaxel] | 2.0 fold | 4.6 fold | 3.6 fold | 3.0 fold | 3.3 fold | 2.3 fold | 6.3 fold | 3.2 fold | 1.1 fold | 5.3 fold | 5.6 fold | 1.4 fold | 5.0 fold | 2.3 fold | 2.8 fold | 4.4 fold | 2.7 fold | 2.2 fold | 3.3 fold | 1.3 fold | Fold change in IC50 (IC50 [Drug + Cobicistat]/IC50 [Drug]) (DU 145): 4.8 fold; Fold change in IC50 (IC50 [Drug + Cobicistat]/IC50 [Drug]) (LNCaP FGC): 3.8 fold; Fold change in IC50 (IC50 [Drug + Cobicistat]/IC50 [Drug]) (CCRF-CEM): 3.6 fold; Fold change in IC50 (IC50 [Drug + Cobicistat]/IC50 [Drug]) (SNU-C2B): 4.8 fold; Fold change in IC50 (IC50 [Drug + Cobicistat]/IC50 [Drug]) (MCF7): 4.1 fold; Fold change in IC50 (IC50 [Drug + Cobicistat]/IC50 [Drug]) (AU-565): 3.2 fold; Fold change in IC50 (IC50 [Drug + Cobicistat]/IC50 [Drug]) (A-498): 4.2 fold; Fold change in IC50 (IC50 [Drug + Cobicistat]/IC50 [Drug]) (AN3 CA): 2.1 fold; Fold change in IC50 (IC50 [Drug + Cobicistat]/IC50 [Drug]) (786-O): 4.2 fold; Fold change in IC50 (IC50 [Drug + Cobicistat]/IC50 [Drug]) (TT): 3.6 fold
2 | CC[C@]1(O)C[C@H]2CN(CCc3c([nH]c4ccccc34)[C@@](C(=O)OC)(c3cc4c(cc3OC)N(C=O)[C@H]3[C@@](O)(C(=O)OC)[C@H](OC(C)=O)[C@]5(CC)C=CCN6CC[C@]43[C@@H]65)C2)C1 [vincristine] | 1.6 fold | 3.4 fold | 3.6 fold | 4.1 fold | 4.7 fold | 2.9 fold | 4.4 fold | 3.5 fold | 1.9 fold | 6.2 fold | 3.7 fold | 2.6 fold | 5.4 fold | 2.0 fold | 4.4 fold | 4.0 fold | 3.0 fold | 3.1 fold | 4.6 fold | 1.9 fold | Fold change in IC50 (IC50 [Drug + Cobicistat]/IC50 [Drug]) (DU 145): 3.8 fold; Fold change in IC50 (IC50 [Drug + Cobicistat]/IC50 [Drug]) (LNCaP FGC): 3.6 fold; Fold change in IC50 (IC50 [Drug + Cobicistat]/IC50 [Drug]) (CCRF-CEM): 3.6 fold; Fold change in IC50 (IC50 [Drug + Cobicistat]/IC50 [Drug]) (SNU-C2B): 2.4 fold; Fold change in IC50 (IC50 [Drug + Cobicistat]/IC50 [Drug]) (MCF7): 4.8 fold; Fold change in IC50 (IC50 [Drug + Cobicistat]/IC50 [Drug]) (AU-565): 3.0 fold; Fold change in IC50 (IC50 [Drug + Cobicistat]/IC50 [Drug]) (A-498): 3.2 fold; Fold change in IC50 (IC50 [Drug + Cobicistat]/IC50 [Drug]) (AN3 CA): 4.7 fold; Fold change in IC50 (IC50 [Drug + Cobicistat]/IC50 [Drug]) (786-O): 2.5 fold; Fold change in IC50 (IC50 [Drug + Cobicistat]/IC50 [Drug]) (TT): 4.8 fold
3 | Cc1nc(Nc2ncc(C(=O)Nc3c(C)cccc3Cl)s2)cc(N2CCN(CCO)CC2)n1 [dasatinib] | 1.0 fold | 2.8 fold | 1.9 fold | 2.2 fold | 1.6 fold | 1.0 fold | 3.9 fold | 1.1 fold | 1.0 fold | 3.0 fold | 1.5 fold | 1.3 fold | 3.1 fold | 1.0 fold | 1.3 fold | 2.5 fold | 3.2 fold | 1.1 fold | 3.0 fold | 5.8 fold | Fold change in IC50 (IC50 [Drug + Cobicistat]/IC50 [Drug]) (DU 145): 3.6 fold; Fold change in IC50 (IC50 [Drug + Cobicistat]/IC50 [Drug]) (LNCaP FGC): 1.3 fold; Fold change in IC50 (IC50 [Drug + Cobicistat]/IC50 [Drug]) (CCRF-CEM): 1.3 fold; Fold change in IC50 (IC50 [Drug + Cobicistat]/IC50 [Drug]) (SNU-C2B): 0.9 fold; Fold change in IC50 (IC50 [Drug + Cobicistat]/IC50 [Drug]) (MCF7): 1.9 fold; Fold change in IC50 (IC50 [Drug + Cobicistat]/IC50 [Drug]) (AU-565): 8.4 fold; Fold change in IC50 (IC50 [Drug + Cobicistat]/IC50 [Drug]) (A-498): 1.4 fold; Fold change in IC50 (IC50 [Drug + Cobicistat]/IC50 [Drug]) (AN3 CA): 1.2 fold; Fold change in IC50 (IC50 [Drug + Cobicistat]/IC50 [Drug]) (786-O): 1.6 fold; Fold change in IC50 (IC50 [Drug + Cobicistat]/IC50 [Drug]) (TT): 0.8 fold
